Source: publication PMC5882164, “A novel calcimimetic agent, evocalcet (MT-4580/KHK7580), suppresses the parathyroid cell function with little effect on the gastrointestinal tract or CYP isozymes in vivo and in vitro” (PLoS ONE, 2018)
Several values for one entry are separate records, joined by “and”; a condition that tells them apart may be missing. Equal values may be shown once.

Test system: serum PTH
Assay: 5/6 nephrectomized rats study: serum PTH level
Type: in vivo, rat
Details: 5/6 Nx rats; for Serum PTH levels before (day 0) and 24 h after evocalcet administration: individual rats; for Serum PTH levels before (day 0) and 24 h after evocalcet administration, Mean / Serum PTH levels after the first administration, Mean: group mean; for Serum PTH levels after the first administration: individual rat
Experimental: Rats were 5/6 nephrectomized in two steps. Under anesthesia (pentobarbital, 50 mg/kg; intraperitoneally) and analgesia (lidocaine; topically), two-thirds of the left kidney was removed, and then the right kidney was removed after a seven-day interval. Seven days after the completion of 5/6 nephrectomy, the FR-2 diet was changed to a high-phosphate diet, containing 0.6% calcium and 0.9% phosphate (Oriental Yeast Co., Ltd., Tokyo, Japan). Approximately 2 weeks after the initiation of the high-phosphate diet, the 5/6 Nx rats were divided into five groups (n = 12/group) matched in terms of their body weight as well as their blood urea nitrogen (BUN) and serum PTH and calcium levels.
In the single-dose study, blood samples were collected from the tail vein before and at 0.5, 2, 4, 8, 24, 48, and 72 h after the oral administration of vehicle (0.5% methyl cellulose solution) or evocalcet (0.03, 0.1, 0.3, or 1 mg/kg). In the repeated-dose study, vehicle or evocalcet was orally administered to the respective groups once daily for 14 days. Blood samples were obtained from the tail vein before the first administration and after the seventh and last administrations.
The serum PTH level was measured using a Rat Intact PTH ELISA kit (Immutopics, Inc., San Clemente, CA). The serum calcium, phosphate and BUN levels were measured using an auto analyzer (Hitachi High-Technologies Corporation., Tokyo, Japan) or the following test kits: the Calcium E-test WAKO, the Phospha C-test WAKO, or the Blood Urea nitrogen B-test WAKO (Wako Pure Chemical Industries, Ltd., Osaka, Japan).

Compound: C[C@@H](N[C@H]1CCN(c2ccc(CC(=O)O)cc2)C1)c1cccc2ccccc12 [evocalcet]
- Serum PTH levels before (day 0) and 24 h after evocalcet administration (0.03 mg/kg, day 0 (Before), 0.03 mg/kg): 3146.838 and 3130.460 and 2411.903 and 1952.597 and 3363.037 and 1097.629 and 2977.436 and 1709.257 and 736.362 and 1492.356 and 1948.854 and 2855.064
- Serum PTH levels before (day 0) and 24 h after evocalcet administration, Mean (0.03 mg/kg, day 7 (24 h)): 1440.297
- Serum PTH levels before (day 0) and 24 h after evocalcet administration (0.03 mg/kg, day 7 (24 h), 0.03 mg/kg): 175.760 and 1003.083 and 756.245 and 2355.229 and 3361.800 and 1990.106 and 170.127 and 208.561 and 3498.638 and 332.146 and 1090.222 and 2341.644
- Serum PTH levels before (day 0) and 24 h after evocalcet administration, Mean (0.03 mg/kg, day 14 (24 h)): 2303.348
- Serum PTH levels before (day 0) and 24 h after evocalcet administration (0.03 mg/kg, day 14 (24 h), 0.03 mg/kg): 4997.693 and 3995.599 and 1879.977 and 3492.362 and 3523.261 and 468.569 and 465.344 and 1621.501 and 608.285 and 1702.644 and 1919.474 and 2965.469
- Serum PTH levels after the first administration (0.1 mg/kg, 0 h): 2191.024 and 4476.799 and 4734.069 and 3561.219 and 1608.879 and 3394.625 and 2344.750 and 2855.532 and 1478.317 and 2515.323
- Serum PTH levels after the first administration (0.1 mg/kg, 0.5 h): 697.065 and 166.990 and 643.814 and 188.145 and 87.713 and 1427.254 and 2994.134 and 497.193 and 52.922 and 216.107
- Serum PTH levels after the first administration (0.1 mg/kg, 2 h): 921.070 and 152.688 and 1274.188 and 268.767 and 48.850 and 837.618 and 3213.565 and 734.412 and 45.617 and 171.332
- Serum PTH levels after the first administration (0.1 mg/kg, 4 h): 1346.496 and 622.337 and 1091.618 and 881.643 and 178.355 and 1445.792 and 3885.042 and 1344.283 and 585.655 and 429.439
- Serum PTH levels after the first administration (0.1 mg/kg, 8 h): 1602.872 and 1239.629 and 2688.836 and 1069.819 and 616.193 and 1780.899 and 3893.446 and 2481.366 and 541.217
- Serum PTH levels after the first administration (0.1 mg/kg, 24 h): 2327.970 and 3050.546 and 5188.511 and 1270.996 and 1634.838 and 3384.643 and 3324.854 and 2293.418 and 169.556
- Serum PTH levels before (day 0) and 24 h after evocalcet administration, Mean (0.1 mg/kg, day 0 (Before)): 3005.615
- Serum PTH levels before (day 0) and 24 h after evocalcet administration (0.1 mg/kg, day 0 (Before), 0.1 mg/kg): 2191.024 and 4476.799 and 4734.069 and 3561.219 and 1608.879 and 3394.625 and 2344.750 and 2855.532 and 1478.317 and 2515.323 and 3938.529 and 2968.311
- Serum PTH levels before (day 0) and 24 h after evocalcet administration, Mean (0.1 mg/kg, day 7 (24 h)): 2408.528
- Serum PTH levels before (day 0) and 24 h after evocalcet administration (0.1 mg/kg, day 7 (24 h), 0.1 mg/kg): 1659.111 and 1709.141 and 1368.206 and 692.961 and 2049.745 and 3311.770 and 3632.825 and 4438.329 and 2720.020 and 2668.995 and 3977.154 and 674.076
- Serum PTH levels before (day 0) and 24 h after evocalcet administration, Mean (0.1 mg/kg, day 14 (24 h)): 1395.021
- Serum PTH levels before (day 0) and 24 h after evocalcet administration (0.1 mg/kg, day 14 (24 h), 0.1 mg/kg): 1994.437 and 1611.022 and 2757.774 and 1453.572 and 176.238 and 2214.760 and 1548.955 and 1921.086 and 242.603 and 1372.697 and 1155.599 and 291.504
- Serum PTH levels before (day 0) and 24 h after evocalcet administration, Mean (0.3 mg/kg, day 0 (before)): 2359.764
- Serum PTH levels before (day 0) and 24 h after evocalcet administration (0.3 mg/kg, day 0 (before), 0.3 mg/kg): 1632.745 and 2446.532 and 2253.029 and 2449.574 and 3238.325 and 2017.644
- Serum PTH levels before (day 0) and 24 h after evocalcet administration, Mean (0.3 mg/kg, day 7 (24 h)): 387.934
- Serum PTH levels before (day 0) and 24 h after evocalcet administration (0.3 mg/kg, day 7 (24 h), 0.3 mg/kg): 516.033 and 370.580 and 777.450 and 52.037 and 15.500 and 862.269
- Serum PTH levels before (day 0) and 24 h after evocalcet administration, Mean (0.3 mg/kg, day 14 (24 h)): 440.352
- Serum PTH levels before (day 0) and 24 h after evocalcet administration (0.3 mg/kg, day 14 (24 h), 0.3 mg/kg): 134.323 and 160.654 and 218.153 and 43.180 and 221.109 and 481.197
- Serum PTH levels after the first administration, Mean (0.3 mg/kg, time 0 h): 2359.764
- Serum PTH levels after the first administration, Mean (0.3 mg/kg, time 0.5 h): 200.671
- Serum PTH levels after the first administration, Mean (0.3 mg/kg, time 2 h): 273.789
- Serum PTH levels after the first administration, Mean (0.3 mg/kg, time 4 h): 614.302
- Serum PTH levels after the first administration, Mean (0.3 mg/kg, time 8 h): 1297.802
- Serum PTH levels after the first administration, Mean (0.3 mg/kg, time 24 h): 1196.310
- Serum PTH levels before (day 0) and 24 h after evocalcet administration, Mean (1 mg/kg, day 0 (before)): 2488.277
- Serum PTH levels before (day 0) and 24 h after evocalcet administration (1 mg/kg, day 0 (before), 1 mg/kg): 3077.112 and 1497.503 and 1942.068 and 2386.399
- Serum PTH levels before (day 0) and 24 h after evocalcet administration, Mean (1 mg/kg, day 7 (24 h)): 641.383
- Serum PTH levels before (day 0) and 24 h after evocalcet administration (1 mg/kg, day 7 (24 h), 1 mg/kg): 740.010 and 15.500 and 123.742
- Serum PTH levels before (day 0) and 24 h after evocalcet administration, Mean (1 mg/kg, day 14 (24 h)): 594.302
- Serum PTH levels before (day 0) and 24 h after evocalcet administration (1 mg/kg, day 14 (24 h), 1 mg/kg): 671.158 and 155.818 and 37.909
- Serum PTH levels after the first administration, Mean (1 mg/kg, time 0 h): 2488.277
- Serum PTH levels after the first administration, Mean (1 mg/kg, time 0.5 h): 86.013
- Serum PTH levels after the first administration, Mean (1 mg/kg, time 2 h): 672.764
- Serum PTH levels after the first administration, Mean (1 mg/kg, time 4 h): 302.274
- Serum PTH levels after the first administration, Mean (1 mg/kg, time 8 h): 788.660
- Serum PTH levels after the first administration, Mean (1 mg/kg, time 24 h): 864.186
- Doses that steadily decreased the serum PTH level (once daily oral for 14 days, 24 h after administration on days 7 and 14): ≥ 0.3 mg/kg
- Doses that significantly decreased the serum PTH level (single oral dose, vs vehicle group): ≥ 0.1 mg/kg
